{"source": "ChEMBL document CHEMBL4190343", "about": "“Novel deoxyvasicinone derivatives as potent multitarget-directed ligands for the treatment of Alzheimer's disease: Design, synthesis, and biological evaluation” (Eur J Med Chem, 2017)", "molecules": {"B1": {"name": "Acetylcholinesterase (Homo sapiens), P22303 (protein)", "chain": "MRPPQCLLHTPSLASPLLLLLLWLLGGGVGAEGREDAELLVTVRGGRLRGIRLKTPGGPVSAFLGIPFAEPPMGPRRFLPPEPKQPWSGVVDATTFQSVCYQYVDTLYPGFEGTEMWNPNRELSEDCLYLNVWTPYPRPTSPTPVLVWIYGGGFYSGASSLDVYDGRFLVQAERTVLVSMNYRVGAFGFLALPGSREAPGNVGLLDQRLALQWVQENVAAFGGDPTSVTLFGESAGAASVGMHLLSPPSRGLFHRAVLQSGAPNGPWATVGMGEARRRATQLAHLVGCPPGGTGGNDTELVACLRTRPAQVLVNHEWHVLPQESVFRFSFVPVVDGDFLSDTPEALINAGDFHGLQVLVGVVKDEGSYFLVYGAPGFSKDNESLISRAEFLAGVRVGVPQVSDLAAEAVVLHYTDWLHPEDPARLREALSDVVGDHNVVCPVAQLAGRLAAQGARVYAYVFEHRASTLSWPLWMGVPHGYEIEFIFGIPLDPSRNYTAEEKIFAQRLMRYWANFARTGDPNEPRDPKAPQWPPYTAGAQQYVSLDLRPLEVRRGLRAQACAFWNRFLPKLLSATDTLDEAERQWKAEFHRWSSYMVHWKNQFDHYSKQDRCSDL"}}, "key": {"Cholinesterase": {"biological_target": "Cholinesterase (Homo sapiens, UniProt P06276)", "sequence (P06276 whole entry)": "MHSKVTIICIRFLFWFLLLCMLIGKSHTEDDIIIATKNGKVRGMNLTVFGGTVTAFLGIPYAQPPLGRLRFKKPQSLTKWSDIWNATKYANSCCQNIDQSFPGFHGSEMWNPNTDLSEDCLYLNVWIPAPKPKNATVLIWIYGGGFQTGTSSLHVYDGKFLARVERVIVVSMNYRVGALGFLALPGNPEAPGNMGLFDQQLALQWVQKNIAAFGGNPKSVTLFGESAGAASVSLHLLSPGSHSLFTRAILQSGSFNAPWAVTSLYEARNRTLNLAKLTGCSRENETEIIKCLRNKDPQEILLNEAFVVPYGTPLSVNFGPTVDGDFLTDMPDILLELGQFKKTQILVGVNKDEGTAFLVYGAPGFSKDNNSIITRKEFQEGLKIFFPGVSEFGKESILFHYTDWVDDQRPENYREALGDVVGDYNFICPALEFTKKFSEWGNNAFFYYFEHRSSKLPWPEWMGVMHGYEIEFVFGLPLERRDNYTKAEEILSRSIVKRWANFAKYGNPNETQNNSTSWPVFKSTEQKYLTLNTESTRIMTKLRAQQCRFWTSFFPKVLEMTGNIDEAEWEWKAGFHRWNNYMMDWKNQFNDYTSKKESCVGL", "description": "Inhibition of human BChE pre-incubated for 6 mins before ATCI substrate addition and measured after 12 mins by DTNB reagent dependent UV-Vis spectrophotometry based Ellman's method"}, "Acetylcholinesterase [1]": {"biological_target": "T1, Acetylcholinesterase (Homo sapiens, UniProt P22303)", "description": "Inhibition of human AChE pre-incubated for 6 mins before ATCI substrate addition and measured after 12 mins by DTNB reagent dependent UV-Vis spectrophotometry based Ellman's method"}, "[2]": {"assay": "Metal chelating activity against Fe3+ ions assessed as compound-Fe3+ complex formation at 50 uM incubated for 30 mins using FeCl3 by UV-Visible spectrophotometry"}, "[3]": {"assay": "Metal chelating activity against Fe2+ ions assessed as reduction in intrinsic fluorescence of compound at 50 uM incubated for 30 mins using FeSO4 by fluorescence spectrophotometry"}, "[4]": {"assay": "Metal chelating activity against Fe3+ ions assessed as reduction in intrinsic fluorescence of compound at 50 uM incubated for 30 mins using FeCl3 by fluorescence spectrophotometry"}, "Acetylcholinesterase [5]": {"biological_target": "T1, Acetylcholinesterase", "assay": "Inhibition of human AChE assessed as inhibitor dissociation constant for enzyme-inhibitor complex pre-incubated for 6 mins before ATCI substrate addition and measured after 12 mins by DTNB reagent dependent Ellman's method based Lineweaver-Burk plot analysis"}, "[6]": {"assay": "Metal chelating activity against Cu2+ ions assessed as compound-Cu2+ complex formation at 50 uM incubated for 30 mins using CuSO4 by UV-Visible spectrophotometry"}, "[7]": {"assay": "Metal chelating activity against Cu2+ ions assessed as reduction in intrinsic fluorescence of compound at 50 uM incubated for 30 mins using CuSO4 by fluorescence spectrophotometry"}, "[8]": {"assay": "Metal chelating activity against Fe2+ ions assessed as compound-Fe2+ complex formation at 50 uM incubated for 30 mins using FeSO4 by UV-Visible spectrophotometry"}, "[9]": {"assay": "Metal chelating activity against Cu2+ ions assessed as 1:1 stoichiometry compound-Cu2+ complex formation at 50 uM incubated for 30 mins using CuSO4 by UV-Visible spectrophotometry"}, "[10]": {"assay": "Metal chelating activity against Zn2+ ions assessed as compound-Zn2+ complex formation at 50 uM incubated for 30 mins using ZnCl2 by UV-Visible spectrophotometry"}, "[11]": {"assay": "Metal chelating activity against Zn2+ ions assessed as reduction in intrinsic fluorescence of compound at 50 uM incubated for 30 mins using ZnCl2 by fluorescence spectrophotometry"}, "Acetylcholinesterase [12]": {"biological_target": "T1, Acetylcholinesterase", "assay": "Inhibition of human AChE assessed as inhibitor dissociation constant for enzyme-substrate-inhibitor complex pre-incubated for 6 mins before ATCI substrate addition and measured after 12 mins by DTNB reagent dependent Ellman's method based Lineweaver-Burk plot analysis"}, "[13]": {"compound": "O=C(CNCc1cc(F)cc(F)c1)Nc1ccc2nc3n(c(=O)c2c1)CCC3", "assay": "Inhibition of human AChE assessed as ATCI substrate Km at 5 nM pre-incubated for 6 mins before ATCI substrate addition and measured after 12 mins by DTNB reagent dependent Ellman's method based Michaelis-Menten kinetics analysis (reference value: […] mM)"}, "[14]": {"compound": "O=C(CNCc1cc(F)cc(F)c1)Nc1ccc2nc3n(c(=O)c2c1)CCC3", "assay": "Inhibition of human AChE assessed as ATCI substrate Vmax at 5 nM pre-incubated for 6 mins before ATCI substrate addition and measured after 12 mins by DTNB reagent dependent Ellman's method based Michaelis-Menten kinetics analysis (reference value: […] deltaA/min)"}, "[15]": {"compound": "O=C(CNCc1cc(F)cc(F)c1)Nc1ccc2nc3n(c(=O)c2c1)CCC3", "assay": "Inhibition of human AChE assessed as ATCI substrate Vmax at 1 nM pre-incubated for 6 mins before ATCI substrate addition and measured after 12 mins by DTNB reagent dependent Ellman's method based Michaelis-Menten kinetics analysis (reference value: […] deltaA/min)"}, "[16]": {"compound": "O=C(CNCc1cc(F)cc(F)c1)Nc1ccc2nc3n(c(=O)c2c1)CCC3", "assay": "Inhibition of human AChE assessed as ATCI substrate Vmax at 10 nM pre-incubated for 6 mins before ATCI substrate addition and measured after 12 mins by DTNB reagent dependent Ellman's method based Michaelis-Menten kinetics analysis (reference value: […] deltaA/min)"}, "[17]": {"compound": "O=C(CNCc1cc(F)cc(F)c1)Nc1ccc2nc3n(c(=O)c2c1)CCC3", "assay": "Inhibition of human AChE assessed as ATCI substrate Km at 1 nM pre-incubated for 6 mins before ATCI substrate addition and measured after 12 mins by DTNB reagent dependent Ellman's method based Michaelis-Menten kinetics analysis (reference value: […] mM)"}, "[18]": {"compound": "O=C(CNCc1cc(F)cc(F)c1)Nc1ccc2nc3n(c(=O)c2c1)CCC3", "assay": "Inhibition of human AChE assessed as ATCI substrate Km at 10 nM pre-incubated for 6 mins before ATCI substrate addition and measured after 12 mins by DTNB reagent dependent Ellman's method based Michaelis-Menten kinetics analysis (reference value: […] mM)"}}, "note": "Calls of active or inactive are those of the source. No cut-off for these calls is given here."}
{"molecule": "CCCCCCCCCCCCNCC(=O)Nc1ccc2nc3n(c(=O)c2c1)CCC3", "values": [{"measurement": "IC50", "setting": "Cholinesterase", "value": 26.8, "unit": "nM"}, {"measurement": "IC50", "setting": "Acetylcholinesterase [1]", "value": 36.7, "unit": "nM"}]}
{"molecule": "CCCCCCCCCCNCC(=O)Nc1ccc2nc3n(c(=O)c2c1)CCC3", "values": [{"measurement": "IC50", "setting": "Cholinesterase", "value": 37.2, "unit": "nM"}, {"measurement": "IC50", "setting": "Acetylcholinesterase [1]", "value": 24.1, "unit": "nM"}]}
{"molecule": "O=C(CNCc1cc(F)cc(F)c1)Nc1ccc2nc3n(c(=O)c2c1)CCC3", "values": [{"measurement": "Activity", "setting": "[2]", "value": "Active"}, {"measurement": "Activity", "setting": "[3]", "value": "Active"}, {"measurement": "IC50", "setting": "Cholinesterase", "value": 2.35, "unit": "nM"}, {"measurement": "Activity", "setting": "[4]", "value": "Active"}, {"measurement": "Ki", "setting": "Acetylcholinesterase [5]", "value": 9.85, "unit": "nM"}, {"measurement": "Activity", "setting": "[6]", "value": "Active"}, {"measurement": "Activity", "setting": "[7]", "value": "Active"}, {"measurement": "Activity", "setting": "[8]", "value": "Active"}, {"measurement": "Activity", "setting": "[9]", "value": "Active"}, {"measurement": "Activity", "setting": "[10]", "value": "inactive"}, {"measurement": "Activity", "setting": "[11]", "value": "inactive"}, {"measurement": "Ki", "setting": "Acetylcholinesterase [12]", "value": 15.8, "unit": "nM"}, {"measurement": "IC50", "setting": "Acetylcholinesterase [1]", "value": 7.61, "unit": "nM"}]}
{"molecule": "O=C(CNCc1ccccc1[N+](=O)[O-])Nc1ccc2nc3n(c(=O)c2c1)CCC3", "values": [{"measurement": "IC50", "setting": "Cholinesterase", "value": 103, "unit": "nM"}, {"measurement": "IC50", "setting": "Acetylcholinesterase [1]", "value": 30.7, "unit": "nM"}]}
{"molecule": "C#CCNCC(=O)Nc1ccc2nc3n(c(=O)c2c1)CCC3", "values": [{"measurement": "IC50", "setting": "Cholinesterase", "value": 12.4, "unit": "nM"}, {"measurement": "IC50", "setting": "Acetylcholinesterase [1]", "value": 46.4, "unit": "nM"}]}
{"molecule": "O=C(CNCCCc1ccccc1)Nc1ccc2nc3n(c(=O)c2c1)CCC3", "values": [{"measurement": "IC50", "setting": "Cholinesterase", "value": 20.7, "unit": "nM"}, {"measurement": "IC50", "setting": "Acetylcholinesterase [1]", "value": 4.09, "unit": "nM"}]}
{"molecule": "CCCCCCNCC(=O)Nc1ccc2nc3n(c(=O)c2c1)CCC3", "values": [{"measurement": "IC50", "setting": "Cholinesterase", "value": 10.5, "unit": "nM"}, {"measurement": "IC50", "setting": "Acetylcholinesterase [1]", "value": 25.3, "unit": "nM"}]}
{"molecule": "CC(C)=CCNCC(=O)Nc1ccc2nc3n(c(=O)c2c1)CCC3", "values": [{"measurement": "IC50", "setting": "Cholinesterase", "value": 16.3, "unit": "nM"}, {"measurement": "IC50", "setting": "Acetylcholinesterase [1]", "value": 25.9, "unit": "nM"}]}
{"molecule": "Cc1ccccc1CNCC(=O)Nc1ccc2nc3n(c(=O)c2c1)CCC3", "values": [{"measurement": "IC50", "setting": "Cholinesterase", "value": 107, "unit": "nM"}, {"measurement": "IC50", "setting": "Acetylcholinesterase [1]", "value": 119, "unit": "nM"}]}
{"molecule": "CCCCCCCCNCC(=O)Nc1ccc2nc3n(c(=O)c2c1)CCC3", "values": [{"measurement": "IC50", "setting": "Cholinesterase", "value": 45.7, "unit": "nM"}, {"measurement": "IC50", "setting": "Acetylcholinesterase [1]", "value": 10.6, "unit": "nM"}]}
{"molecule": "CCNCC(=O)Nc1ccc2nc3n(c(=O)c2c1)CCC3", "values": [{"measurement": "IC50", "setting": "Cholinesterase", "value": 1000, "unit": "nM"}, {"measurement": "IC50", "setting": "Acetylcholinesterase [1]", "value": 557, "unit": "nM"}]}
{"molecule": "O=c1c2ccccc2nc2n1CCC2", "note": "[DEOXYVASICINONE]", "values": [{"measurement": "IC50", "setting": "Cholinesterase", "value": 45100, "unit": "nM"}, {"measurement": "IC50", "setting": "Acetylcholinesterase [1]", "value": 62500, "unit": "nM"}]}
{"molecule": "O=C(CNCc1ccccc1F)Nc1ccc2nc3n(c(=O)c2c1)CCC3", "values": [{"measurement": "IC50", "setting": "Cholinesterase", "value": 108, "unit": "nM"}, {"measurement": "IC50", "setting": "Acetylcholinesterase [1]", "value": 528, "unit": "nM"}]}
{"molecule": "N#Cc1ccccc1CNCC(=O)Nc1ccc2nc3n(c(=O)c2c1)CCC3", "values": [{"measurement": "IC50", "setting": "Cholinesterase", "value": 29.9, "unit": "nM"}, {"measurement": "IC50", "setting": "Acetylcholinesterase [1]", "value": 16.8, "unit": "nM"}]}
{"molecule": "C=CCNCC(=O)Nc1ccc2nc3n(c(=O)c2c1)CCC3", "values": [{"measurement": "IC50", "setting": "Cholinesterase", "value": 16.6, "unit": "nM"}, {"measurement": "IC50", "setting": "Acetylcholinesterase [1]", "value": 66.6, "unit": "nM"}]}
{"molecule": "O=C(CNCc1ccccc1)Nc1ccc2nc3n(c(=O)c2c1)CCC3", "values": [{"measurement": "IC50", "setting": "Cholinesterase", "value": 145, "unit": "nM"}, {"measurement": "IC50", "setting": "Acetylcholinesterase [1]", "value": 231, "unit": "nM"}]}
{"molecule": "C=CCCNCC(=O)Nc1ccc2nc3n(c(=O)c2c1)CCC3", "values": [{"measurement": "IC50", "setting": "Cholinesterase", "value": 81.5, "unit": "nM"}, {"measurement": "IC50", "setting": "Acetylcholinesterase [1]", "value": 13.3, "unit": "nM"}]}
{"molecule": "CCCCCCCCCCCCCCCCNCC(=O)Nc1ccc2nc3n(c(=O)c2c1)CCC3", "values": [{"measurement": "IC50", "setting": "Cholinesterase", "value": 4.35, "unit": "nM"}, {"measurement": "IC50", "setting": "Acetylcholinesterase [1]", "value": 5.31, "unit": "nM"}]}
{"molecule": "CCCNCC(=O)Nc1ccc2nc3n(c(=O)c2c1)CCC3", "values": [{"measurement": "IC50", "setting": "Cholinesterase", "value": 1190, "unit": "nM"}, {"measurement": "IC50", "setting": "Acetylcholinesterase [1]", "value": 310, "unit": "nM"}]}
{"molecule": "CCCCNCC(=O)Nc1ccc2nc3n(c(=O)c2c1)CCC3", "values": [{"measurement": "IC50", "setting": "Cholinesterase", "value": 107, "unit": "nM"}, {"measurement": "IC50", "setting": "Acetylcholinesterase [1]", "value": 21.2, "unit": "nM"}]}
{"molecule": "B1", "values": [{"measurement": "Km", "setting": "[13]", "value": 369, "unit": "µM"}, {"measurement": "Vmax", "setting": "[14]", "value": 0.19, "unit": "deltaA/min"}, {"measurement": "Vmax", "setting": "[15]", "value": 0.212, "unit": "deltaA/min"}, {"measurement": "Vmax", "setting": "[16]", "value": 0.152, "unit": "deltaA/min"}, {"measurement": "Km", "setting": "[17]", "value": 329, "unit": "µM"}, {"measurement": "Km", "setting": "[18]", "value": 434, "unit": "µM"}]}
